From publication PMC6934184, “Selective DNA-PKcs inhibition extends the therapeutic index of localized radiotherapy and chemotherapy” (The Journal of Clinical Investigation, 2019)

Target: DNA-PK (Homo sapiens, UniProt P78527)
Assay: SelectScreen Z'LYTE
Assay type: biochemical
Design: purchased Thermo Fisher Scientific (Life Technologies) SelectScreen
Conditions: ATP Km app
Protocol: The in vitro kinase selectivity of NU5455 was determined using the SelectScreen Broad Assay Panel (Thermo Fisher Scientific) involving activity and binding assays (Supplemental Table 1). […] Class IA PI3Ks were measured using the p85α subunit.
Kinase [ATP] % Assay Kinase [ATP] % Assay Kinase [ATP] % Assay Kinase [ATP] % Assay
DNA-PK Km app 98.3 Z LATS2 n/a 4.7 L KIT D820E n/a 1.3 L GSK3B (GSK3 beta) Km app -2.5 Z
PIK3C3 (hVPS34) Km app 85.9 A PRKCZ (PKC zeta) Km app 4.7 Z GRK1 n/a 1.3 L BMPR2 n/a -2.5 L
PIK3C2B (PI3K-C2 beta) 10 28.9 A FGFR1 Km app 4.7 Z BRSK2 n/a 1.2 L CDC42 BPB (MRCKB) Km app -2.5 Z
SNF1LK2 Km app 26.6 Z MINK1 Km app 4.6 Z NUAK1 (ARK5) Km app 1.2 A AMPK (A2/B2/G2) n/a -2.6 L
HCK Km app 18.0 Z CSF1R (FMS) Km app 4.3 Z CDK9/cyclin K n/a 1.0 L PRKG1 Km app -2.7 Z
NEK2 Km app 17.8 Z CSNK1G3 (CK1 gamma 3) Km app 4.2 Z NUAK2 n/a 1.0 L KIT T670E n/a -2.8 L
ALK Km app 17.3 Z STK32C (YANK3) n/a 4.2 L CDK2/cyclin O n/a 0.9 L ERBB4 (HER4) Km app -2.8 Z
FGFR3 K650M n/a 16.5 L STK22D (TSSK1) Km app 4.2 Z CAMKK2 (CaMKK beta) n/a 0.9 L PLK4 n/a -2.8 L
SIK3 n/a 16.1 L TAOK3 (JIK) n/a 4.2 L FGFR3 Km app 0.9 Z GRK7 Km app -3.0 Z
LYN A Km app 15.2 Z RPS6KA4 (MSK2) Km app 4.2 Z ULK2 n/a 0.9 L MAPKAPK2 Km app -3.1 Z
BMPR1B (ALK6) n/a 14.5 L PTK2B (FAK2) Km app 4.2 Z KIT D816V n/a 0.9 L FGFR4 Km app -3.1 Z
INSRR (IRR) Km app 14.1 Z CLK2 Km app 4.1 Z CAMK1 (CaMK1) 10 0.8 A CASK n/a -3.1 L […]

Question: How did the “% inhibition” value (1 µM) turn out when CN(C(=O)CN1CCOCC1)c1ccc2sc3c(-c4cccc5c(=O)cc(N6CC7CCC(C6)O7)oc45)cccc3c2c1 [NU5455] was run?
Answer: 98%

Question: What about the inhibition at 1 µM of the same molecule?
Answer: 98.3%
